Assay results published in patent publication US20090306020A1, “Combination therapy comprising diaryl ureas for treating diseases” (Bayer Healthcare AG, priority 2005, published 2009).
“Also recorded” adds a separate entry of the source.

Tests used:
MelCAM [1] = assay: Immunohistochemistry for MelCAM in metastatic melanoma reconstructs; format: cell-based, human; settings: Skmel28 and WM451Lu in dermal reconstructs; 4 μM wortmannin, 6 μM BAY 43-9006, alone or combined
Description: (§1) The in vitro reconstruction of metastatic melanoma is based on the organotypic human skin culture technique (14). A cell-free buffered collagen solution was prepared consisting of rat tail collagen type I (BD Biosciences, Bedford, Mass., USA) at a final concentration of 1.35 mg/ml in Dulbecco's modified Eagle's medium with 10% FBS. 1.0 ml of the cell-free collagen solution was added to tissue culture inserts (Millicell PC, Millipore, Bedford, Mass., USA) placed in six-well tissue culture plates. While the acellular collagen layer was solidifying, a second collagen solution was prepared similar to the first with the addition of human fibroblasts and the melanoma cells SKMEL28 or 451 LU. Human fibroblasts and human melanoma cells from subconfluent cultures were trypsinised, washed and resuspended in the second collagen solution at a density of 15×10^5/ml and a fibroblast to melanoma cell ratio of 1:1. 3.0 ml of the fibroblast and melanoma cell-containing collagen solution were placed over the solidified acellular collagen layer. After 5 days of incubation at 37° C., the fibroblast contraction force causes the collagen gel to contract. This structure represents the melanoma reconstruct in a dermal equivalent. […] After 10 to 14 days of submerged culture, the melanoma reconstructs were harvested and evaluated. […]

[2] = tested on: Skmel28 metastatic melanoma cells; assay: Active caspase 3 staining (apoptosis) of melanoma reconstructs; format: cell-based, human; settings: Skmel28 in dermal reconstructs; wortmannin, BAY 43-9006 or both
Description: as §1

[3] = tested on: Skmel28 metastatic melanoma cells; assay: Ki-67 proliferation marker staining of melanoma reconstructs (organotypic culture); format: cell-based, human; settings: Skmel28 in dermal reconstructs; 4 μM wortmannin, 6 μM BAY 43-9006, alone or combined; 2-3 weeks
Description: as §1

MelCAM [4] = assay: Flow cytometry of cell surface MelCAM, 451Lu monolayer; format: cell-based, human; settings: 4 μM wortmannin, 6 μM BAY 43-9006, alone or combined, 96 hours
Description: (§2) For blockade of the AKT and MAPK signaling pathways, the PI3K inhibitor wortmannin (Sigma, Steinheim, Germany) and BAY 43-9006 alone or in combination were added directly to the culture medium of the melanoma reconstructs or melanoma cells in monolayer culture at 4 μM and 6 μM, respectively. […] The culture medium was changed every two days. Melanoma reconstructs treated with culture medium or culture medium with the addition of DMSO served as controls. All experiments were done as duplicates and were repeated twice.
(§3) Surface proteins of 1×10^5-1×10^6 451Lu metastatic melanoma cells were stained as follows: Cells were pelleted for 5 min at 1,800 rpm (Heraeus variofuge 3.0R), blocked with 1×PBS/1% BSA, and after centrifugation incubated with antibodies against MeI-CAM (QBiogene-Alexis) or avβ3 integrin (BD Biosciences, Heidelberg) for 15 minutes at room temperature. Cells were washed with 1×PBS/1% BSA and subsequently incubated with anti mouse IgG-FITC (BD Biosciences, Heidelberg) or mouse IgG-isotype control-FITC alone (BD Biosciences, Heidelberg). After washing and pelleting the cells, the cell pellet was resuspended in 1×PBS and measured in a FACScalibur (BD Bioscienses, Heidelberg).
(§4) Furthermore, we examined whether inhibition of these signaling pathways affected expression of the adhesion molecules MelCAM and avβ3 known to play a key role in melanoma cell invasion. […]

[5] = tested on: 451Lu metastatic melanoma cells; assay: Proliferation assay (fluorimetric, 4-methylumbelliferyl heptanoate, MUH), monolayer culture; format: cell-based, human; settings: 451Lu monolayer; wortmannin 2-20 μM, BAY 43-9006 1-7 μM; MUH fluorescence
Description: Cells were seeded as triplicates in 96 well plates at a density of 1,500 cells per well in 150 μl medium (1×10^4 cells per ml). The PI3K inhibitor wortmannin (Sigma, Steinheim, Germany) was directly added to the culture medium at concentrations ranging from 2-20 μM. BAY 43-9006 was added directly to the culture medium at concentrations ranging from 0.5-7 μM. Culture medium, cells treated with culture medium, and cells treated with culture medium with the addition of DMSO served as controls. Assay was started at timepoints indicated. Medium was discarded and each well was washed two times with PBS (without Ca2+ and Mg2+) and 100 μl of a solution containing 100 μg MUH (4-methylumbelliferyl-hepanoat)/ml PBS was added. Plates were incubated at 37° C. for one hour and measured in a Fluoroskan II (Labsystems, Helsinki), with an […]. The intensity of fluorescence indicates the number of vital cells in the wells (18,19).
To analyze the effects of inhibition of either the MAPK or AKT signaling pathways or both together on the proliferation of melanoma cells, we treated the metastatic melanoma cell line 451Lu in monolayer with the PI3K inhibitor wortmannin, BAY 43-9006, or both together. […]
The effect of inhibition of these signaling pathways on cell proliferation was determined by a fluorimetric assay using 4-methylumbelliferyl heptanoate (MUH) (18, 19).

β3 integrin = assay: Immunohistochemistry for β3 integrin in metastatic melanoma reconstructs; format: cell-based, human; settings: Skmel28 and WM451Lu in dermal reconstructs, 4 μM wortmannin, 6 μM BAY 43-9006, alone or combined
Description: (§5) The in vitro reconstruction of metastatic melanoma is based on the organotypic human skin culture technique (14). A cell-free buffered collagen solution was prepared consisting of rat tail collagen type I (BD Biosciences, Bedford, Mass., USA) at a final concentration of 1.35 mg/ml in Dulbecco's modified Eagle's medium with 10% FBS. 1.0 ml of the cell-free collagen solution was added to tissue culture inserts (Millicell PC, Millipore, Bedford, Mass., USA) placed in six-well tissue culture plates. While the acellular collagen layer was solidifying, a second collagen solution was prepared similar to the first with the addition of human fibroblasts and the melanoma cells SKMEL28 or 451 LU. Human fibroblasts and human melanoma cells from subconfluent cultures were trypsinised, washed and resuspended in the second collagen solution at a density of 15×10^5/ml and a fibroblast to melanoma cell ratio of 1:1. 3.0 ml of the fibroblast and melanoma cell-containing collagen solution were placed over the solidified acellular collagen layer. After 5 days of incubation at 37° C., the fibroblast contraction force causes the collagen gel to contract. This structure represents the melanoma reconstruct in a dermal equivalent. For submerged culture conditions, 3 ml of melanoma cell culture medium supplemented with 10% FBS were added beneath the insert and 2 ml inside the insert to allow proliferation of the seeded cells. The culture medium was changed every two days. After 10 to 14 days of submerged culture, the melanoma reconstructs were harvested and evaluated.
For blockade of the AKT and MAPK signaling pathways, the PI3K inhibitor wortmannin (Sigma, Steinheim, Germany) and BAY 43-9006 alone or in combination were added directly to the culture medium of the melanoma reconstructs or melanoma cells in monolayer culture at 4 μM and 6 μM, respectively. These concentrations have been described previously to be effective for melanoma cells 6 (16). The culture medium was changed every two days. […]

phospho-AKT (Ser473) = assay: Immunohistochemistry for phosphorylated AKT in melanoma reconstructs; format: cell-based, human; settings: Skmel28 reconstructs; 4 μM wortmannin
Description: as §1

[6] = tested on: Skmel28 metastatic melanoma cells; assay: Invasive melanoma growth in human dermal reconstructs (hematoxylin staining); format: cell-based; settings: 4 μM wortmannin; for invasive melanoma growth (number and size of melanoma cell nests): 6 μM BAY 43-9006, alone or combined
Description: as §5
For blockade of the AKT and MAPK signaling pathways, the PI3K inhibitor wortmannin (Sigma, Steinheim, Germany) and BAY 43-9006 alone or in combination were added directly to the culture medium of the melanoma reconstructs or melanoma cells in monolayer culture at 4 μM and 6 μM, respectively. These concentrations have been described previously to be effective for melanoma cells 6 (16). The culture medium was changed every two days. Melanoma reconstructs treated with culture medium or culture medium with the addition of DMSO served as controls. All experiments were done as duplicates and were repeated twice.
Melanoma reconstructs were fixed with 4% formaldehyde for 8-9 h, dehydrated, and embedded in paraffin. Paraffin sections were stained with hematoxylin for routine light microscopy. […]
Finally, we determined whether the inhibition of the PI3K/AKT signaling pathway and the MAP kinase signaling pathway is able to affect invasive melanoma growth in a physiological context. […]

avβ3 integrin = assay: Flow cytometry of cell surface avβ3 integrin, 451Lu monolayer; format: cell-based, human; settings: 4 μM wortmannin, 6 μM BAY 43-9006, alone or combined, 96 hours
Description: as §2, §3, §4

[7] = tested on: phospho-ERK (phospho-p44/42 MAP kinase, Thr202/Tyr204); assay: Immunohistochemistry for phosphorylated ERK in melanoma reconstructs; format: cell-based, human; settings: Skmel28 reconstructs; 6 μM BAY 43-9006
Description: as §1

COC[C@H]1OC(=O)c2coc3c2[C@@]1(C)C1=C(C3=O)[C@@H]2CCC(=O)[C@@]2(C)C[C@H]1OC(C)=O [wortmannin]
expression of MelCAM (MelCAM [1]): downregulated the expression of MelCAM | active caspase 3 (ongoing apoptosis) [2]: active caspase 3 was found in the majority of Skmel28 metastatic melanoma cells | cell proliferation (Ki-67 staining) [3]: little or no effect on proliferation rate | cell surface expression of MelCAM (MelCAM [4]): downregulates the expression of the adhesion molecules MelCAM; also recorded: down-regulates cell surface expression of MelCAM | effect on number of proliferating (vital) cells / proliferation rate [5]: Little or no effect on the number of proliferating cells; also recorded: no significant effect on the number of proliferating cells | expression of β3 integrin (β3 integrin): not altered | expression of β3 integrin (β3 integrin; listed as Wortmannin): not affected | inhibition of phosphorylation of AKT (phospho-AKT (Ser473)): effective in the inhibition of phosphorylation | cohesion of melanoma cells (melanoma-melanoma cell adhesion) [6]: decreased | morphology of melanoma cells [6]: multidendritic morphology; also recorded: multidendritic phenotype | invasive melanoma growth (number and size of melanoma cell nests) [6]: reduced invasive tumor growth; also recorded: number and size of melanoma cell nests were reduced

CNC(=O)c1cc(Oc2ccc(NC(=O)Nc3ccc(Cl)c(C(F)(F)F)c3)cc2)ccn1 [BAY 43-9006, 4{4-[3-(4-chloro-3-trifluoromethylphenyl)-ureido]-phenoxy}-pyridine-2-carboxylic acid methyl amide]
expression of MelCAM (MelCAM [1]): not affected; also recorded: did not appear to affect MelCAM expression | active caspase 3 (ongoing apoptosis) [2]: active caspase 3 was found in the majority of Skmel28 metastatic melanoma cells | cell proliferation (Ki-67 staining) [3]: significant decrease in cell proliferation | cell surface expression of avβ3 integrin (avβ3 integrin): down-regulates the expression of avβ3 integrin; also recorded: down-regulated | effect on number of proliferating (vital) cells / proliferation rate [5]: significantly reduced; also recorded: significant decrease in cell proliferation | expression of β3 integrin (β3 integrin): significantly reduced; also recorded: substantially reduced β3 integrin expression | invasive melanoma growth (number and size of melanoma cell nests) [6]: reduced invasive tumor growth; also recorded: reduced number and size of melanoma cell nests | inhibition of phosphorylation of ERK (MAP-kinase pathway) [7]: effective in the inhibition of phosphorylation
